Here are results for 1 compound from patent US20080261986A1, “PHARMACEUTICAL FORMULATIONS FOR IONTOPHORETIC DELIVERY OF AN ANTI-FUNGAL DRUG” (priority 2007, published 2008).

Counter-ions that a name gives are not always drawn.

Series [1] has as its system T. rubrum. In words: Antifungal activity of terbinafine loaded nails, agar diffusion assay. It counts as cell-based. As to the method: The nail plates loaded with the formulation containing 4% terbinafine HCl, 21% ethanol (95%), 5% Tween-80, 40% glycerin, 0.3% HEC, 0.2% benzoic acid, 0.01% BHT, and 0.01% disodium EDTA (Formulation TPI-DF-507), by passive diffusion (15 or 60 min) or iontophoresis (Coulombic doses of 0.75, 3, 6, and 12 mA min corresponding to 0.25 mA/cm^2 for 15 min, 0.25 mA/cm^2 for 60 min, 0.5 mA/cm^2 for 60 min, and 1 mA/cm^2 for 60 min, respectively), were tested for antifungal activity. The inoculum, T. rubrum, (ATCC10218) was prepared in sterile saline from 7-10 days old cultures on PDA slants at 30° C. Terbinafine HCl loaded nail pieces (2˜3 mm squares) were placed on the Sabouraud Dextrose Agar plates (Oxoid, Napean, Ontario, Canada) inoculated with T. rubrum. The diameter (mm) of the zones of inhibition were measured using a dial caliper after 4 days of incubation at 30° C. and were compared with the standards. The zone of inhibition for the standards (known drug concentrations: 0.1, 0.2, 0.4, 0.5, 0.6, 0.8, 1.0. 2.0 and 3.0 μg of terbinafine HCl) were determined similarly by loading the drug on 6 mm paper blank disks (Becton Dickinson, Sparks, Md.). Subsequently, the terbinafine HCl standard curve generated was used to calculate the drug dosage out of the nail. […] Based on the passaging study, duration of release of active terbinafine HCl was determined.

The nature of series [2]: Delivery from nail-only and nail and skin applicators, nail on agarose model. The settings on record: for nail loading range: Coulombic dose range 2-60 mA*min. It counts as in vitro ADME. An excerpt: In the nail and skin applicator, the drug was delivered to both the nail and the skin (not shown). In the nail and skin applicator, the polyurethane foam and the active electrode (Ag-C) extended past the toe nail and onto agarose to mimic skin delivery. The agarose was covered with fluorinated ethylene propylene (FEP) membrane with uniform 0.5 mm holes distributed 5 mm apart to mimic the semi-restrictive property of the skin. […] The applicator extensions were adhered down to the base of the glass plate where the agarose was placed. The saline presoaked (1 hr) toe nail was placed on the curved agarose gel (1% w/v) with a counter electrode on the bottom of the agarose (standard EKG AgCl electrode with hydrogel, […]). […] Passive delivery was also run for 1 hr without current. […] The amount of drug permeated through the nail and into the agarose was determined by extracting terbinafine using 0.1M HCl and analyzing the samples by HPLC. Additional terbinafine HCl delivery testing using both types of applicators at different Coulombic doses were performed on the nail on agarose model. […] These additional doses, along with the higher 60 mA*min dose, were plotted as terbinafine loading (mg/g) with respect to Coulombic dose (FIG. 9F).

Series [3] can be described thus: Saturated solubility of terbinafine HCl in various solvents. It counts as physicochemical. The settings on record: thermodynamic from solid, n = 3. As to the method: In order to establish a suitable receiver fluid for use in permeation studies, the saturated solubility of terbinafine HCl at room temperature was determined in various solvents such as, water, phosphate buffered saline (PBS), PBS with 5% Tween-80 (PBS-T), citrate buffer and sodium phosphate buffer. The drug was added to each of the solvents until visual saturation was obtained and the mixtures were left at controlled temperature (19° C.) for 24 hours. The saturated drug solution was filtered and solubility of the drug was determined by UV spectrophotometer.

Series [4] can be described thus: Approximate visual solubility in receiver fluids. The series is classed as physicochemical. To be noted: aqueous with cosolvent or surfactant or cyclodextrin, Approximate visual solubility. The method, then:
The visual solubility of each receiver fluid shown in Table 3 below was initially tested for ketoconazole (BUFA B.V.) and ciclopirox (PCAS Finland Oy). Additional solubility testing was then conducted for terbinafine hydrochloride (QueMaCo Ltd.), amorolfine hydrochloride (Inter-Chemical Ltd.) and itraconazole EP (Shamrock, UK) and the results are shown in Table 3.
The solubility of terbinafine hydrochloride, fluconazole, itraconazole and amorolfine hydrochloride was determined in PBS and 5% Tween 80 and the results are summarized in Table 4.

Series [5] is described as follows: Permeation through hoof membrane in Franz diffusion cell, passive versus iontophoretic. It counts as in vitro ADME, bovine. The method, then: The permeation experiments were conducted to optimize the parameters for iontophoretically-assisted terbinafine HCl into the hoof membrane. In these experiments bovine hoof membranes (˜0.250 mm thickness) were used as a model for human nail plates. The prehydrated (in water for 60 min) hoof membrane was sandwiched between the donor and receptor compartments of Franz diffusion cell (FDC). The receptor compartment was filled with receiver fluid (5 ml of PBS-5% Tween 80 (T80), water or water-T80 as indicated) and the set up was visually examined for any leaks by inverting the FDC. Two ml of drug solutions (5-10 mg/ml) or suspensions (5-10 mg/ml) were placed in the donor compartment of the Franz diffusion cell. […] Aliquots (50 μl) of the receptor phase were taken every 15 minutes for the first two hours and every hour subsequently for 8 h. A last aliquot was taken at 24 h. Some experiments were conducted for longer in which case aliquots were taken daily. […] Control passive experiments were conducted in the same way except for the application of electric current. Data were expressed as means ±standard deviations. All experiments were performed in triplicate. Drug permeation was measured as described above for up to 24 hours (n=3). For iontophoretic permeation, current density of 1 mA cm^2 was applied for 1 hr using carbon electrodes. […]

Series [6] in a line: Effect of Tween-20 and Tween-80 on terbinafine HCl solubility in water and PBS. To be noted: thermodynamic from solid, n = 3. The series is classed as physicochemical. The method, then: The influence of Tween-20 and Tween-80 on terbinafine HCl solubility in water and PBS was determined. The drug was added to each of the solvents until visual saturation was obtained, then left at controlled temperature (19° C.) or 24 hours. The saturated solutions were filtered and drug solubility in the filtrate was determined by UV spectrophotometer.

Series [7] relates to T. rubrum. The settings on record: quoted in the T. rubrum agar study, organism not given; cited from earlier work.

As usually defined, the solubility is how much of the substance goes into solution per volume. Low readings indicate a poorly soluble substance, high ones a readily soluble substance. The MIC is the least concentration at which growth counts as inhibited. Consider `CN(C/C=C/C#CC(C)(C)C)Cc1cccc2ccccc12` [terbinafine HCl, (E)-N-(6,6-dimethyl-2-hepten-4-ynyl)-N-methyl-1-naphthylmethamine hydrochloride], for which the “zones of inhibition, iontophoresis loaded nails versus passive delivery controls” value in series [1] (Formulation TPI-DF-507, 4 days at 30° C.) is “Significantly larger zones of inhibition”. The “Duration of terbinafine HCl release from nail samples” value in series [1] (serial passaging to freshly inoculated plates, 0.5 mA/cm^2 for 60 min) is given as “at least 36 days”. The “share of the permeated drug that passed through the nail” value in series [2] (1 h, 4 %) was determined as 8%. In addition, in series [2] (1 h, 4 %), the “share of the total permeated drug which passed through areas surrounding the nail” value is listed as “Approximately 92%”. The nail loading range in series [2] (nail and skin applicator) was in the range of 20 to 90 µg/g; in series [2] (nail only applicator), 124 to 588 µg/g. Further, the solubility at 24 h was 1810 µg/mL in series [3] (aqueous buffer, Citrate buffer, pH 5, 19° C.); 1320 µg/mL in series [3] (aqueous buffer, PBS, pH 7.4, 19° C.); 6020 µg/mL in series [3] (aqueous with cosolvent or surfactant or cyclodextrin, PBS-T (PBS with 5% Tween-80), pH 6.8, 19° C.); 6370 µg/mL in series [3] (Distilled water, pH 5.8, 19° C.); 1320 µg/mL in series [6] (aqueous buffer, PBS, 19° C.); 5220 ± 20 µg/mL in series [6] (aqueous with cosolvent or surfactant or cyclodextrin, PBS and 5% Tween-20, 19° C.). Further, the solubility at 24 h in series [6] (aqueous with cosolvent or surfactant or cyclodextrin, PBS and 5% Tween-80, 19° C.) turned out to be 6530 ± 60 µg/mL; in series [6] (aqueous with cosolvent or surfactant or cyclodextrin, Water and 5% Tween-20, 19° C.) it was 10600 ± 660 µg/mL; in series [6] (aqueous with cosolvent or surfactant or cyclodextrin, Water and 5% Tween-80, 19° C.), 11500 ± 640 µg/mL; in series [6] (Distilled water, 19° C.), 6370 ± 310 µg/mL. Also, the solubility in series [4] was over 5000 µg/mL. The “time at which iontophoretic drug permeation leveled off” value in series [5] (bovine, 10 mg/ml) is recorded as “about 8 hrs”. In addition, the “drug concentration in the receptor phase” value in series [5] (passive delivery, at 24 h, water-T80 and 10 mg/ml drug solution, average of replicates) amounted to 0.02 µg/mL. Further, in series [7], the MIC is 4 ng/mL.
